Results on 1 molecule are retold here after paper PMC5244364 (2017).

Each structure is given as a SMILES string.

Test [1] has as its system KRAS (DNA, G4) GGGAGGGAGGGAAGGAGGGAGGGAGGGA
The test is described as follows: ITC. The conditions noted are these: 100 mM KCl, K+ phosphate; 10 mM potassium phosphate pH 7.0, 25 °C; 100 µM DNA injected into 10 µM compound; one set of sites.

Test [2] shares this test system. Description: UV absorption titration (316 nm). The conditions noted are these: 100 mM KCl, K+ phosphate; 10 mM potassium phosphate pH 7.0; 10 µM compound titrated with 0–20 µM DNA; one-site fit.
For test [3], the system named is GC rich duplex DNA (DNA, duplex) AGGGTGGGGAGGGT/ACCCTCCCCACCCT
Description: UV absorption titration. As to conditions: 100 mM KCl, K+ phosphate; 10 mM potassium phosphate pH 7.0; 10 µM compound, 0–20 µM duplex; quadruplex affinity 4–16 fold higher.

For test [4], the system named is KRAS (DNA, G4) GGGAGGGAGGGAAGGAGGGAGGGAGGGA
Description: CD melting. The conditions noted are these: 100 mM KCl, K+ phosphate; 10 mM potassium phosphate pH 7.0; 1:2 DNA:compound (10 µM DNA in CD titration); Tm free 67.5.

In test [5] the test system is VEGFA (DNA, G4) GGGGGCGGGCCGGGGGCGGGGTCCCGGCGGGGCGGAG
Description: CD melting. As to conditions: 100 mM KCl, K+ phosphate; 10 mM potassium phosphate pH 7.0; 1:2 DNA:compound (10 µM DNA in CD titration); Tm free 67.3.

The test system is the same in test [6]. The test is described as follows: ITC. As to conditions: 100 mM KCl, K+ phosphate; 10 mM potassium phosphate pH 7.0, 25 °C; 100 µM DNA injected into 10 µM compound; one set of sites.
The test system is the same in test [7]. Description: fluorescence anisotropy of compound. As to conditions: 100 mM KCl, K+ phosphate; 10 mM potassium phosphate pH 7.0; 10 µM compound titrated with DNA.
Test [8] relates to BCL2 (DNA, G4) CGGGCGCGGGAGGAATTGGGCGGGAGC
The test is described as follows: UV absorption titration (316 nm). As to conditions: 100 mM KCl, K+ phosphate; 10 mM potassium phosphate pH 7.0; 10 µM compound titrated with 0–20 µM DNA; one-site fit.

Test [9] deals with KRAS (DNA, G4) GGGAGGGAGGGAAGGAGGGAGGGAGGGA
The test is described as follows: fluorescence anisotropy of compound. As to conditions: 100 mM KCl, K+ phosphate; 10 mM potassium phosphate pH 7.0; 10 µM compound titrated with DNA.

In test [10] the test system is VEGFA (DNA, G4) GGGGGCGGGCCGGGGGCGGGGTCCCGGCGGGGCGGAG
The test is described as follows: ethidium bromide displacement, fluorescence. As to conditions: 100 mM KCl, K+ phosphate; 10 mM potassium phosphate pH 7.0; 5 µM ethidium bromide displaced, 10 µM DNA.

In test [11] the test system is KRAS (DNA, G4) GGGAGGGAGGGAAGGAGGGAGGGAGGGA
The test is described as follows: ethidium bromide displacement, fluorescence. As to conditions: 100 mM KCl, K+ phosphate; 10 mM potassium phosphate pH 7.0; 5 µM ethidium bromide displaced, 10 µM DNA.

For test [12], the system named is GC rich duplex DNA (DNA, duplex) AGGGTGGGGAGGGT/ACCCTCCCCACCCT
Description: ITC. The conditions noted are these: 100 mM KCl, K+ phosphate; 10 mM potassium phosphate pH 7.0, 25 °C; 100 µM duplex injected into 10 µM compound.

In test [13] the test system is BCL2 (DNA, G4) CGGGCGCGGGAGGAATTGGGCGGGAGC
Description: CD melting. The conditions noted are these: 100 mM KCl, K+ phosphate; 10 mM potassium phosphate pH 7.0; 1:2 DNA:compound (10 µM DNA in CD titration); Tm free 57.1.

For test [14] the test system is unchanged. Description: ITC. As to conditions: 100 mM KCl, K+ phosphate; 10 mM potassium phosphate pH 7.0, 25 °C; 100 µM DNA injected into 10 µM compound; one set of sites.
Test [15] shares this test system. The test is described as follows: fluorescence anisotropy of compound. The conditions noted are these: 100 mM KCl, K+ phosphate; 10 mM potassium phosphate pH 7.0; 10 µM compound titrated with DNA.
Test [16] has as its system VEGFA (DNA, G4) GGGGGCGGGCCGGGGGCGGGGTCCCGGCGGGGCGGAG
Description: UV absorption titration (316 nm). The conditions noted are these: 100 mM KCl, K+ phosphate; 10 mM potassium phosphate pH 7.0; 10 µM compound titrated with 0–20 µM DNA; one-site fit.

In test [17] the test system is BCL2 (DNA, G4) CGGGCGCGGGAGGAATTGGGCGGGAGC
The test is described as follows: ethidium bromide displacement, fluorescence. As to conditions: 100 mM KCl, K+ phosphate; 10 mM potassium phosphate pH 7.0; 5 µM ethidium bromide displaced, 10 µM DNA.

Test [18] concerns GC rich duplex DNA (DNA, duplex) AGGGTGGGGAGGGT/ACCCTCCCCACCCT
Description: fluorescence anisotropy of compound. The conditions noted are these: 100 mM KCl, K+ phosphate; 10 mM potassium phosphate pH 7.0; 10 µM compound, 0–20 µM duplex.

As to `COc1ccc2c(c[n+](C)c3c4cc5c(cc4ccc23)OCO5)c1OC`, the KD came out at 870 nM in test [1]; 720 ± 200 nM in test [2]; 8330 ± 400 nM in test [3]; 980 nM in [6]; 250 nM in test [7]; 1920 ± 700 nM in test [8]. For the same molecule, the KD in [9] turned out to be 1500 nM; in [12], 4330 nM; in test [14], 600 nM; in [15] it was 3200 nM; in [16] it was 510 ± 300 nM; in [18], 6140 ± 2000 nM. In addition, the entries for the “∆Tm” value in [4], in test [5] and in test [13] were 4.6 °C, 3.3 °C and 16.2 °C, respectively. Also, the binding entry in test [10], in test [11] and in test [17] was “yes” in each case.
